# Data published in ChEMBL document CHEMBL4765227, “Hit to lead optimization of a series of N-[4-(1,3-benzothiazol-2-yl)phenyl]acetamides as monoacylglycerol lipase inhibitors with potential anticancer activity” (Eur J Med Chem, 2016).
# Legend:
# Assay type in all cases: functional
# Details in all cases: read-out: GI
# CCRF-CEM = experiment: Growth inhibition of human CCRF-CEM cells at 10 uM incubated for 48 hrs by sulforhodamine B assay relative to control
# HL-60(TB) = experiment: Growth inhibition of human HL-60(TB) cells at 10 uM incubated for 48 hrs by sulforhodamine B assay relative to control
# K562 = experiment: Growth inhibition of human K562 cells at 10 uM incubated for 48 hrs by sulforhodamine B assay relative to control
# MOLT-4 = experiment: Growth inhibition of human MOLT-4 cells at 10 uM incubated for 48 hrs by sulforhodamine B assay relative to control
# RPMI-8226 = experiment: Growth inhibition of human RPMI-8226 cells at 10 uM incubated for 48 hrs by sulforhodamine B assay relative to control
# SR = experiment: Growth inhibition of human SR cells at 10 uM incubated for 48 hrs by sulforhodamine B assay relative to control
# A549 = experiment: Growth inhibition of human A549/ATCC cells at 10 uM incubated for 48 hrs by sulforhodamine B assay relative to control
# HOP-62 = experiment: Growth inhibition of human HOP-62 cells at 10 uM incubated for 48 hrs by sulforhodamine B assay relative to control
# HOP-92 = experiment: Growth inhibition of human HOP-92 cells at 10 uM incubated for 48 hrs by sulforhodamine B assay relative to control
# NCI-H23 = experiment: Growth inhibition of human NCI-H23 cells at 10 uM incubated for 48 hrs by sulforhodamine B assay relative to control
# NCI-H522 = experiment: Growth inhibition of human NCI-H522 cells at 10 uM incubated for 48 hrs by sulforhodamine B assay relative to control
# HCC 2998 = experiment: Growth inhibition of human HCC 2998 cells at 10 uM incubated for 48 hrs by sulforhodamine B assay relative to control
# HCT-116 = experiment: Growth inhibition of human HCT-116 cells at 10 uM incubated for 48 hrs by sulforhodamine B assay relative to control
# HCT-15 = experiment: Growth inhibition of human HCT-15 cells at 10 uM incubated for 48 hrs by sulforhodamine B assay relative to control
# HT-29 = experiment: Growth inhibition of human HT-29 cells at 10 uM incubated for 48 hrs by sulforhodamine B assay relative to control
# KM12 = experiment: Growth inhibition of human KM12 cells at 10 uM incubated for 48 hrs by sulforhodamine B assay relative to control
# SF-268 = experiment: Growth inhibition of human SF-268 cells at 10 uM incubated for 48 hrs by sulforhodamine B assay relative to control
# SF-295 = experiment: Growth inhibition of human SF-295 cells at 10 uM incubated for 48 hrs by sulforhodamine B assay relative to control
# SF-539 = experiment: Growth inhibition of human SF-539 cells at 10 uM incubated for 48 hrs by sulforhodamine B assay relative to control
# SNB-19 = experiment: Growth inhibition of human SNB-19 cells at 10 uM incubated for 48 hrs by sulforhodamine B assay relative to control
# SNB-75 = experiment: Growth inhibition of human SNB-75 cells at 10 uM incubated for 48 hrs by sulforhodamine B assay relative to control
# U-251 = experiment: Growth inhibition of human U-251 cells at 10 uM incubated for 48 hrs by sulforhodamine B assay relative to control
# LOX IMVI = experiment: Growth inhibition of human LOX IMVI cells at 10 uM incubated for 48 hrs by sulforhodamine B assay relative to control
# M14 = experiment: Growth inhibition of human M14 cells at 10 uM incubated for 48 hrs by sulforhodamine B assay relative to control
# MDA-MB-435 = experiment: Growth inhibition of human MDA-MB-435 cells at 10 uM incubated for 48 hrs by sulforhodamine B assay relative to control
# SK-MEL-28 = experiment: Growth inhibition of human SK-MEL-28 cells at 10 uM incubated for 48 hrs by sulforhodamine B assay relative to control
# SK-MEL-5 = experiment: Growth inhibition of human SK-MEL-5 cells at 10 uM incubated for 48 hrs by sulforhodamine B assay relative to control
# UACC-257 = experiment: Growth inhibition of human UACC-257 cells at 10 uM incubated for 48 hrs by sulforhodamine B assay relative to control
# UACC-62 = experiment: Growth inhibition of human UACC-62 cells at 10 uM incubated for 48 hrs by sulforhodamine B assay relative to control
# OVCAR-4 = experiment: Growth inhibition of human OVCAR-4 cells at 10 uM incubated for 48 hrs by sulforhodamine B assay relative to control
# OVCAR-8 = experiment: Growth inhibition of human OVCAR-8 cells at 10 uM incubated for 48 hrs by sulforhodamine B assay relative to control
# SK-OV-3 = experiment: Growth inhibition of human SK-OV-3 cells at 10 uM incubated for 48 hrs by sulforhodamine B assay relative to control
# ACHN = experiment: Growth inhibition of human ACHN cells at 10 uM incubated for 48 hrs by sulforhodamine B assay relative to control
# RXF 393 = experiment: Growth inhibition of human RXF 393 cells at 10 uM incubated for 48 hrs by sulforhodamine B assay relative to control
# SN12C = experiment: Growth inhibition of human SN12C cells at 10 uM incubated for 48 hrs by sulforhodamine B assay relative to control
# TK-10 = experiment: Growth inhibition of human TK-10 cells at 10 uM incubated for 48 hrs by sulforhodamine B assay relative to control
# UO-31 = experiment: Growth inhibition of human UO-31 cells at 10 uM incubated for 48 hrs by sulforhodamine B assay relative to control
# PC-3 = experiment: Growth inhibition of human PC-3 cells at 10 uM incubated for 48 hrs by sulforhodamine B assay relative to control
# DU-145 = experiment: Growth inhibition of human DU-145 cells at 10 uM incubated for 48 hrs by sulforhodamine B assay relative to control
# MCF7 = experiment: Growth inhibition of human MCF7 cells at 10 uM incubated for 48 hrs by sulforhodamine B assay relative to control
# MDA-MB-231 = experiment: Growth inhibition of human MDA-MB-231 cells at 10 uM incubated for 48 hrs by sulforhodamine B assay relative to control
# BT-549 = experiment: Growth inhibition of human BT-549 cells at 10 uM incubated for 48 hrs by sulforhodamine B assay relative to control
# T47D = experiment: Growth inhibition of human T47D cells at 10 uM incubated for 48 hrs by sulforhodamine B assay relative to control
# MDA-MB-468 = experiment: Growth inhibition of human MDA-MB-468 cells at 10 uM incubated for 48 hrs by sulforhodamine B assay relative to control
structure (smiles),measurement,setting,value
Cc1cc(C)n(CC(=O)Nc2ccc(-c3nc4ccccc4s3)cc2)n1,inhibition of growth at 10 µM,CCRF-CEM,1.49%
same,inhibition of growth at 10 µM,HL-60(TB),-2.97%
same,inhibition of growth at 10 µM,K562,-0.21%
same,inhibition of growth at 10 µM,MOLT-4,16%
same,inhibition of growth at 10 µM,RPMI-8226,2.85%
same,inhibition of growth at 10 µM,SR,0.6%
same,inhibition of growth at 10 µM,A549,5.29%
same,inhibition of growth at 10 µM,HOP-62,-5.06%
same,inhibition of growth at 10 µM,HOP-92,2.31%
same,inhibition of growth at 10 µM,NCI-H23,6.19%
same,inhibition of growth at 10 µM,NCI-H522,-2.77%
same,inhibition of growth at 10 µM,HCC 2998,7.15%
same,inhibition of growth at 10 µM,HCT-116,-7.45%
same,inhibition of growth at 10 µM,HCT-15,-5.24%
same,inhibition of growth at 10 µM,HT-29,-8.3%
same,inhibition of growth at 10 µM,KM12,-0.27%
same,inhibition of growth at 10 µM,SF-268,-0.26%
same,inhibition of growth at 10 µM,SF-295,-3.17%
same,inhibition of growth at 10 µM,SF-539,1.4%
same,inhibition of growth at 10 µM,SNB-19,0.22%
same,inhibition of growth at 10 µM,SNB-75,-0.57%
same,inhibition of growth at 10 µM,U-251,10.3%
same,inhibition of growth at 10 µM,LOX IMVI,2.33%
same,inhibition of growth at 10 µM,M14,-11.3%
same,inhibition of growth at 10 µM,MDA-MB-435,-7.5%
same,inhibition of growth at 10 µM,SK-MEL-28,-8.88%
same,inhibition of growth at 10 µM,SK-MEL-5,3.6%
same,inhibition of growth at 10 µM,UACC-257,-7.21%
same,inhibition of growth at 10 µM,UACC-62,4.67%
same,inhibition of growth at 10 µM,OVCAR-4,2.19%
same,inhibition of growth at 10 µM,OVCAR-8,0.31%
same,inhibition of growth at 10 µM,SK-OV-3,-14%
same,inhibition of growth at 10 µM,ACHN,-14.4%
same,inhibition of growth at 10 µM,RXF 393,-29%
same,inhibition of growth at 10 µM,SN12C,-2.13%
same,inhibition of growth at 10 µM,TK-10,-6.36%
same,inhibition of growth at 10 µM,UO-31,16.2%
same,inhibition of growth at 10 µM,PC-3,13.2%
same,inhibition of growth at 10 µM,DU-145,-2.89%
same,inhibition of growth at 10 µM,MCF7,73.4%
same,inhibition of growth at 10 µM,MDA-MB-231,-7.87%
same,inhibition of growth at 10 µM,BT-549,-15.3%
same,inhibition of growth at 10 µM,T47D,6.7%
same,inhibition of growth at 10 µM,MDA-MB-468,103%
O=C(CN1CCOCC1)Nc1ccc(-c2nc3ccccc3s2)cc1,inhibition of growth at 10 µM,CCRF-CEM,4.51%
same,inhibition of growth at 10 µM,HL-60(TB),-0.57%
same,inhibition of growth at 10 µM,K562,0.74%
same,inhibition of growth at 10 µM,MOLT-4,0.57%
same,inhibition of growth at 10 µM,RPMI-8226,6%
same,inhibition of growth at 10 µM,SR,-2.12%
same,inhibition of growth at 10 µM,A549,6.19%
same,inhibition of growth at 10 µM,HOP-62,-6.41%
same,inhibition of growth at 10 µM,HOP-92,16.7%
same,inhibition of growth at 10 µM,NCI-H23,4.49%
same,inhibition of growth at 10 µM,NCI-H522,5.46%
same,inhibition of growth at 10 µM,HCC 2998,12%
same,inhibition of growth at 10 µM,HCT-116,3.9%
same,inhibition of growth at 10 µM,HCT-15,6.26%
same,inhibition of growth at 10 µM,HT-29,-3.04%
same,inhibition of growth at 10 µM,KM12,-6.84%
same,inhibition of growth at 10 µM,SF-268,-10.3%
same,inhibition of growth at 10 µM,SF-295,1.81%
same,inhibition of growth at 10 µM,SF-539,10.3%
same,inhibition of growth at 10 µM,SNB-19,-0.79%
same,inhibition of growth at 10 µM,SNB-75,0.01%
same,inhibition of growth at 10 µM,U-251,10.5%
same,inhibition of growth at 10 µM,LOX IMVI,0.08%
same,inhibition of growth at 10 µM,M14,-1.15%
same,inhibition of growth at 10 µM,MDA-MB-435,-7.79%
same,inhibition of growth at 10 µM,SK-MEL-28,-2.13%
same,inhibition of growth at 10 µM,SK-MEL-5,7.27%
same,inhibition of growth at 10 µM,UACC-257,-1.38%
same,inhibition of growth at 10 µM,UACC-62,-0.01%
same,inhibition of growth at 10 µM,OVCAR-4,-0.52%
same,inhibition of growth at 10 µM,OVCAR-8,-2.44%
same,inhibition of growth at 10 µM,SK-OV-3,-21%
same,inhibition of growth at 10 µM,ACHN,-4.03%
same,inhibition of growth at 10 µM,RXF 393,-11.4%
same,inhibition of growth at 10 µM,SN12C,-1.02%
same,inhibition of growth at 10 µM,TK-10,-12%
same,inhibition of growth at 10 µM,UO-31,4.97%
same,inhibition of growth at 10 µM,PC-3,6.98%
same,inhibition of growth at 10 µM,DU-145,-9.1%
same,inhibition of growth at 10 µM,MCF7,51.2%
same,inhibition of growth at 10 µM,MDA-MB-231,3.16%
same,inhibition of growth at 10 µM,BT-549,-3.57%
same,inhibition of growth at 10 µM,T47D,6.73%
same,inhibition of growth at 10 µM,MDA-MB-468,107%
